Laboratory results taken from patent publication US20150225454A1, “TETRABRANCHED PEPTIDES AND ANALOGUES AS A NEW CLASS OF ANTIMICROBIALS AND THEIR PREPARATION THEREOF” (priority 2012, published 2015).
Where a SMILES comes first, the peptide text is derived from it. Bridges are numbered along the chain shown (N, C = ends). Roman numbers before positions name the chains, in order. Where no end group is shown, it is not given here.

Experiments:
[1] = test system: IOBA-NHC cells; format: cell-based, human; conditions: 24 h
Experimental: IOBA-NHC cells were cultured under standard conditions (humidified atmosphere of 5% CO2 at 37° C.) in DMEM/F12 supplemented with 1 μg/ml bovine pancreas insulin, 2 ng/ml mouse epidermal growth factor, 0.1 μg/ml cholera toxin, […] hydrocortisone, 10% fetal bovine serum (FBS), 50 UI/ml penicillin, and 50 UI/ml streptomycin. Cells from passages 50-80 were used in all experiments. Every day, normal culture development was observed by phase-contrast microscopy. Cells were removed by gentle trypsin incubation at confluence and counted. They were seeded into 96 well culture plates (Corning, Schiphol-Rijk, The Netherlands) for microtitration analysis of flow cytotoxicity assay (˜10,000 cells/well). Cultures were kept at 37° C. for 24 h. Subconfluent cells (culture surface covering nearly 70%) were then exposed to various peptide concentrations (0.22-225 μM). Cytotoxicity was measured periodically using MultiTox-Fluor Multiplex assay kit (Promega, Wis., USA) by measuring the AFC fluorescence (λex=485 and λem=520 nm).

[2] = test system: C. albicans; experiment: microbe, parasite or virus in culture; format: cell-based; conditions: against both C. albicans and Fusarium strains
Experimental: The yeast strains were cultivated and suspended in Sabouraud's Dextrose (SD) broth diluted at one sixth at a starting OD600=˜0.08 in a flat-bottomed microtitre plate. A serial dilution of peptide in the same broth was mixed with the inoculum to give a final peptide concentration of 0.4-22 μM. The antifungal activity was assessed by monitoring the OD600 in cycles of 30 minutes and an orbital shaking at 100 rpm using an Infinite M200 microplate reader (Tecan Group Ltd., Switzerland) for 24/48 h at 37° C. Cultures without peptides were used as positive controls and broth alone or with 22 μM peptide served as negative controls. The minimum concentration required for complete inhibition was assessed by both visible observations as well as by measuring the OD600 and taken as the MIC. Each experiment was repeated in triplicates.

Row | Compound | EC50 [1] [µM] | antifungal activity [2]
1 | CC(C)[C@H](NC(=O)[C@H](CCCCN)NC(=O)[C@H](CCCNC(=N)N)NC(=O)[C@H](C)NC(=O)[C@@H](N)CCCNC(=N)N)C(=O)N[C@H](C(=O)N[C@@H](CCCNC(=N)N)C(=O)N[C@@H](CCCNC(=N)N)C(=O)NCCCC[C@H](NC(=O)[C@H](CCCNC(=N)N)NC(=O)[C@H](CCCNC(=N)N)NC(=O)[C@@H](NC(=O)[C@@H](NC(=O)[C@H](CCCCN)NC(=O)[C@H](CCCNC(=N)N)NC(=O)[C@H](C)NC(=O)[C@@H](N)CCCNC(=N)N)C(C)C)C(C)C)C(=O)NCCCC[C@H](NC(=O)[C@H](CCCCNC(=O)[C@H](CCCNC(=N)N)NC(=O)[C@H](CCCNC(=N)N)NC(=O)[C@@H](NC(=O)[C@@H](NC(=O)[C@H](CCCCN)NC(=O)[C@H](CCCNC(=N)N)NC(=O)[C@H](C)NC(=O)[C@@H](N)CCCNC(=N)N)C(C)C)C(C)C)NC(=O)[C@H](CCCNC(=N)N)NC(=O)[C@H](CCCNC(=N)N)NC(=O)[C@@H](NC(=O)[C@@H](NC(=O)[C@H](CCCCN)NC(=O)[C@H](CCCNC(=N)N)NC(=O)[C@H](C)NC(=O)[C@@H](N)CCCNC(=N)N)C(C)C)C(C)C)C(=O)N[C@@H](CCCCN)C(=O)O)C(C)C [Peptide B4010-G2A] (I: H-RARKVVRRKKK-OH / II: H-RARKVVRRK / III: H-RARKVVRR / IV: H-RARKVVRR; amide I:9-IV:C, I:10-II:C, II:9-III:C) | 110 | 
2 | C[C@H](NC(=O)[C@H](C)NC(=O)[C@H](CCCNC(=N)N)NC(=O)CNC(=O)[C@@H](N)CCCNC(=N)N)C(=O)N[C@@H](C)C(=O)N[C@@H](CCCNC(=N)N)C(=O)N[C@@H](CCCNC(=N)N)C(=O)NCCCC[C@H](NC(=O)[C@H](CCCNC(=N)N)NC(=O)[C@H](CCCNC(=N)N)NC(=O)[C@H](C)NC(=O)[C@H](C)NC(=O)[C@H](C)NC(=O)[C@H](CCCNC(=N)N)NC(=O)CNC(=O)[C@@H](N)CCCNC(=N)N)C(=O)NCCCC[C@H](NC(=O)[C@H](CCCCNC(=O)[C@H](CCCNC(=N)N)NC(=O)[C@H](CCCNC(=N)N)NC(=O)[C@H](C)NC(=O)[C@H](C)NC(=O)[C@H](C)NC(=O)[C@H](CCCNC(=N)N)NC(=O)CNC(=O)[C@@H](N)CCCNC(=N)N)NC(=O)[C@H](CCCNC(=N)N)NC(=O)[C@H](CCCNC(=N)N)NC(=O)[C@H](C)NC(=O)[C@H](C)NC(=O)[C@H](C)NC(=O)[C@H](CCCNC(=N)N)NC(=O)CNC(=O)[C@@H](N)CCCNC(=N)N)C(=O)N[C@@H](CCCCN)C(=O)O [[(SEQ ID NO: 16)2K]2KK] (I: H-RGRAAARRKKK-OH / II: H-RGRAAARRK / III: H-RGRAAARR / IV: H-RGRAAARR; amide I:9-IV:C, I:10-II:C, II:9-III:C; N-terminus and C-terminus assumed) | 169 | 
3 | C[C@H](NC(=O)CNC(=O)[C@@H](N)CCCNC(=N)N)C(=O)N[C@@H](CCCCN)C(=O)N[C@@H](C)C(=O)N[C@@H](C)C(=O)N[C@@H](CCCNC(=N)N)C(=O)N[C@@H](CCCNC(=N)N)C(=O)NCCCC[C@H](NC(=O)[C@H](CCCNC(=N)N)NC(=O)[C@H](CCCNC(=N)N)NC(=O)[C@H](C)NC(=O)[C@H](C)NC(=O)[C@H](CCCCN)NC(=O)[C@H](C)NC(=O)CNC(=O)[C@@H](N)CCCNC(=N)N)C(=O)NCCCC[C@H](NC(=O)[C@H](CCCCNC(=O)[C@H](CCCNC(=N)N)NC(=O)[C@H](CCCNC(=N)N)NC(=O)[C@H](C)NC(=O)[C@H](C)NC(=O)[C@H](CCCCN)NC(=O)[C@H](C)NC(=O)CNC(=O)[C@@H](N)CCCNC(=N)N)NC(=O)[C@H](CCCNC(=N)N)NC(=O)[C@H](CCCNC(=N)N)NC(=O)[C@H](C)NC(=O)[C@H](C)NC(=O)[C@H](CCCCN)NC(=O)[C@H](C)NC(=O)CNC(=O)[C@@H](N)CCCNC(=N)N)C(=O)N[C@@H](CCCCN)C(=O)O [[(SEQ ID NO: 15)2K]2KK] (I: H-RGAKAARRKKK-OH / II: H-RGAKAARRK / III: H-RGAKAARR / IV: H-RGAKAARR; amide I:9-IV:C, I:10-II:C, II:9-III:C; N-terminus and C-terminus assumed) | > 250 | 
4 | CC(C)[C@H](NC(=O)[C@H](CCCCN)NC(=O)[C@H](CCCNC(=N)N)NC(=O)CNC(=O)[C@@H](N)CCCNC(=N)N)C(=O)N[C@H](C(=O)N[C@@H](CCCNC(=N)N)C(=O)N[C@@H](C)C(=O)NCCCC[C@H](NC(=O)[C@H](C)NC(=O)[C@H](CCCNC(=N)N)NC(=O)[C@@H](NC(=O)[C@@H](NC(=O)[C@H](CCCCN)NC(=O)[C@H](CCCNC(=N)N)NC(=O)CNC(=O)[C@@H](N)CCCNC(=N)N)C(C)C)C(C)C)C(=O)NCCCC[C@H](NC(=O)[C@H](CCCCNC(=O)[C@H](C)NC(=O)[C@H](CCCNC(=N)N)NC(=O)[C@@H](NC(=O)[C@@H](NC(=O)[C@H](CCCCN)NC(=O)[C@H](CCCNC(=N)N)NC(=O)CNC(=O)[C@@H](N)CCCNC(=N)N)C(C)C)C(C)C)NC(=O)[C@H](C)NC(=O)[C@H](CCCNC(=N)N)NC(=O)[C@@H](NC(=O)[C@@H](NC(=O)[C@H](CCCCN)NC(=O)[C@H](CCCNC(=N)N)NC(=O)CNC(=O)[C@@H](N)CCCNC(=N)N)C(C)C)C(C)C)C(=O)N[C@@H](CCCCN)C(=O)O)C(C)C [Peptide B4010-R8A] (I: H-RGRKVVRAKKK-OH / II: H-RGRKVVRAK / III: H-RGRKVVRA / IV: H-RGRKVVRA; amide I:9-IV:C, I:10-II:C, II:9-III:C) | > 237 | 
5 | C[C@H](NC(=O)[C@H](C)NC(=O)[C@H](C)NC(=O)[C@H](C)NC(=O)[C@H](CCCCN)NC(=O)[C@H](CCCNC(=N)N)NC(=O)CNC(=O)[C@@H](N)CCCNC(=N)N)C(=O)NCCCC[C@H](NC(=O)[C@H](C)NC(=O)[C@H](C)NC(=O)[C@H](C)NC(=O)[C@H](C)NC(=O)[C@H](CCCCN)NC(=O)[C@H](CCCNC(=N)N)NC(=O)CNC(=O)[C@@H](N)CCCNC(=N)N)C(=O)NCCCC[C@H](NC(=O)[C@H](CCCCNC(=O)[C@H](C)NC(=O)[C@H](C)NC(=O)[C@H](C)NC(=O)[C@H](C)NC(=O)[C@H](CCCCN)NC(=O)[C@H](CCCNC(=N)N)NC(=O)CNC(=O)[C@@H](N)CCCNC(=N)N)NC(=O)[C@H](C)NC(=O)[C@H](C)NC(=O)[C@H](C)NC(=O)[C@H](C)NC(=O)[C@H](CCCCN)NC(=O)[C@H](CCCNC(=N)N)NC(=O)CNC(=O)[C@@H](N)CCCNC(=N)N)C(=O)N[C@@H](CCCCN)C(=O)O [[(SEQ ID NO: 18)2K]2KK] (I: H-RGRKAAAAKKK-OH / II: H-RGRKAAAAK / III: H-RGRKAAAA / IV: H-RGRKAAAA; amide I:9-IV:C, I:10-II:C, II:9-III:C; N-terminus and C-terminus assumed) | > 273 | 
6 | CC(C)[C@H](NC(=O)[C@H](C)NC(=O)[C@H](C)NC(=O)CNC(=O)[C@@H](N)CCCNC(=N)N)C(=O)N[C@H](C(=O)N[C@@H](CCCNC(=N)N)C(=O)N[C@@H](CCCNC(=N)N)C(=O)NCCCC[C@H](NC(=O)[C@H](CCCNC(=N)N)NC(=O)[C@H](CCCNC(=N)N)NC(=O)[C@@H](NC(=O)[C@@H](NC(=O)[C@H](C)NC(=O)[C@H](C)NC(=O)CNC(=O)[C@@H](N)CCCNC(=N)N)C(C)C)C(C)C)C(=O)NCCCC[C@H](NC(=O)[C@H](CCCCNC(=O)[C@H](CCCNC(=N)N)NC(=O)[C@H](CCCNC(=N)N)NC(=O)[C@@H](NC(=O)[C@@H](NC(=O)[C@H](C)NC(=O)[C@H](C)NC(=O)CNC(=O)[C@@H](N)CCCNC(=N)N)C(C)C)C(C)C)NC(=O)[C@H](CCCNC(=N)N)NC(=O)[C@H](CCCNC(=N)N)NC(=O)[C@@H](NC(=O)[C@@H](NC(=O)[C@H](C)NC(=O)[C@H](C)NC(=O)CNC(=O)[C@@H](N)CCCNC(=N)N)C(C)C)C(C)C)C(=O)N[C@@H](CCCCN)C(=O)O)C(C)C [[(SEQ ID NO: 10)2K]2KK] (I: H-RGAAVVRRKKK-OH / II: H-RGAAVVRRK / III: H-RGAAVVRR / IV: H-RGAAVVRR; amide I:9-IV:C, I:10-II:C, II:9-III:C; N-terminus and C-terminus assumed) | 250 | 
7 | RGRKVVRRKKKRRVVKRGR [Linear Retrodimer, reference compound] |  | weak antifungal activity
8 | RGRKVVRRKK [Monomer, reference compound] |  | weak antifungal activity
9 | CC(C)[C@H](NC(=O)[C@H](C)NC(=O)[C@H](CCCCN)NC(=O)[C@H](CCCNC(=N)N)NC(=O)CNC(=O)[C@@H](N)CCCNC(=N)N)C(=O)N[C@@H](CCCNC(=N)N)C(=O)N[C@@H](CCCNC(=N)N)C(=O)NCCCC[C@H](NC(=O)[C@H](CCCNC(=N)N)NC(=O)[C@H](CCCNC(=N)N)NC(=O)[C@@H](NC(=O)[C@H](C)NC(=O)[C@H](CCCCN)NC(=O)[C@H](CCCNC(=N)N)NC(=O)CNC(=O)[C@@H](N)CCCNC(=N)N)C(C)C)C(=O)NCCCC[C@H](NC(=O)[C@H](CCCCNC(=O)[C@H](CCCNC(=N)N)NC(=O)[C@H](CCCNC(=N)N)NC(=O)[C@@H](NC(=O)[C@H](C)NC(=O)[C@H](CCCCN)NC(=O)[C@H](CCCNC(=N)N)NC(=O)CNC(=O)[C@@H](N)CCCNC(=N)N)C(C)C)NC(=O)[C@H](CCCNC(=N)N)NC(=O)[C@H](CCCNC(=N)N)NC(=O)[C@@H](NC(=O)[C@H](C)NC(=O)[C@H](CCCCN)NC(=O)[C@H](CCCNC(=N)N)NC(=O)CNC(=O)[C@@H](N)CCCNC(=N)N)C(C)C)C(=O)N[C@@H](CCCCN)C(=O)O [Peptide B4010-V5A] (I: H-RGRKAVRRKKK-OH / II: H-RGRKAVRRK / III: H-RGRKAVRR / IV: H-RGRKAVRR; amide I:9-IV:C, I:10-II:C, II:9-III:C) | 190 | 
